Measured values as given in ChEMBL document CHEMBL3616383, “Discovery of novel 5,6,7,8-tetrahydro[1,2,4]triazolo[4,3-a]pyridine derivatives as γ-secretase modulators” (Bioorg Med Chem Lett, 2015).

Assays:
[1] = Lipophilicity, log D of the compound at pH 7.4 by reversed phase chromatography; assay type: physicochemical; details: buffer
[2] = Inhibition of gamma-secretase in rat primary neuronal cells assessed as reduction in amyloid beta (1 to 42) production; assay type: cell-based; details: Primary neuron
[3] = Inhibition of gamma-secretase-mediated Notch processing in rat primary neuronal cells; assay type: cell-based; details: Primary neuron
Mus musculus [4] = test: Reduction in amyloid beta (1 to 40) levels in C57BL/6J mouse brain at 10 mg/kg, po after 3 hrs; assay type: functional
[5] = Inhibition of gamma-secretase in rat primary neuronal cells assessed as reduction in amyloid beta (1 to 40) production; assay type: cell-based; details: Primary neuron
Mus musculus [6] = test: Reduction in amyloid beta (1 to 42) levels in C57BL/6J mouse brain at 10 mg/kg, po after 3 hrs; assay type: functional
[7] = Drug level in C57BL/6J mouse plasma at 10 mg/kg, po after 3 hrs; assay type: ADME, organism-based
Mus musculus [8] = test: Reduction in amyloid beta (1 to 42) levels in C57BL/6J mouse plasma at 10 mg/kg, po after 3 hrs; assay type: functional
Mus musculus [9] = test: Reduction in amyloid beta (1 to 40) levels in C57BL/6J mouse plasma at 10 mg/kg, po after 3 hrs; assay type: functional
[10] = Drug level in C57BL/6J mouse cortex at 10 mg/kg, po after 3 hrs; assay type: ADME, organism-based; details: read-out: Drug uptake

Structure (SMILES)	chromatographic logD [1]	IC50 [2]	other results
COc1cc(-c2nc3n(n2)CCCC3c2ccc(Cl)c(Cl)c2)ccc1-c1cnc(C)o1 (stereo not drawn)	4.4	860 nM	
COc1cc(-c2nnn3c2CCCC3c2ccc(Cl)c(Cl)c2)ccc1-c1cnc(C)o1 (stereo not drawn)	4.2	210 nM	
COc1cc(-c2nnc3n2CCOC3c2ccc(Cl)c(Cl)c2)ccc1-c1cnc(C)o1 (stereo not drawn)	3.1	530 nM	
COc1ccc(C2CCCn3c(-c4ccc(-c5cnc(C)o5)c(OC)c4)nnc32)cc1 (stereo not drawn)	2.4	1900 nM	
COc1cc(-c2nnc3n2CCCC3c2ccc(Cl)c(C(F)(F)F)c2)ccc1-c1cnc(C)o1 (stereo not drawn)	3.2	220 nM	
COc1cc(-c2nnc3n2CCC[C@@H]3c2ccc(Cl)cc2C(F)(F)F)ccc1-c1cnc(C)o1	3.5	60 nM	IC50 [3]: > 10000 nM; % of vehicle at 10 mg/kg (Mus musculus [4]): 75%; IC50 [5]: 490 nM; % of vehicle at 10 mg/kg (Mus musculus [6]): 50%; concentration at 3 h [7]: 6450 ng/mL; % of vehicle at 10 mg/kg (Mus musculus [8]): 31%; % of vehicle at 10 mg/kg (Mus musculus [9]): 63%; concentration at 3 h [10]: 2330 ng/g
COc1cc(-c2nnc3n2CCCCC3c2ccc(Cl)c(Cl)c2)ccc1-c1cnc(C)o1 (stereo not drawn)	3.5	220 nM	
COc1cc(-c2nnc3n2CCC[C@H]3c2ccc(Cl)cc2C(F)(F)F)ccc1-c1cnc(C)o1	3.5	830 nM	
COc1cc(-c2nnc(Cc3ccc(Cl)c(Cl)c3)[nH]2)ccc1-c1cnc(C)o1	4.1	2000 nM	
COc1cc(-c2nnc3n2CCCC3c2ccc(Cl)cc2C(F)(F)F)ccc1-c1cnc(C)o1 (stereo not drawn)	3.5	84 nM	
COc1cc(-c2nnc3n2CCCC3c2ccc(Cl)cc2)ccc1-c1cnc(C)o1 (stereo not drawn)	2.8	570 nM	
COc1cc(-c2nnc3n2CCCC3c2ccccc2C(F)(F)F)ccc1-c1cnc(C)o1 (stereo not drawn)	3	380 nM	
COc1cc(-c2nnc3n2CCCC3c2ccc(Cl)c(Cl)c2)ccc1-c1cnc(C)o1 (stereo not drawn)	3.2	210 nM	
COc1cc(-c2nnc3n2CCCC3c2ccc(F)cc2)ccc1-c1cnc(C)o1 (stereo not drawn)	2.4	1500 nM	
COc1cc(-c2nnc3n2CCCC3c2ccc(C(F)(F)F)cc2)ccc1-c1cnc(C)o1 (stereo not drawn)	2.9	510 nM	
COc1cc(-c2nnc3n2CCC=C3c2ccc(Cl)c(Cl)c2)ccc1-c1cnc(C)o1	3.6	600 nM	
COc1cc(-c2nnc3n2CCCC3c2cc(C(F)(F)F)ccc2C(F)(F)F)ccc1-c1cnc(C)o1 (stereo not drawn)	3.3	300 nM	
COc1cc(-c2nnc3n2CCCC3c2cccc(C(F)(F)F)c2)ccc1-c1cnc(C)o1 (stereo not drawn)	2.8	370 nM	
COc1cc(-c2nnc3n2CCC3c2ccc(Cl)c(Cl)c2)ccc1-c1cnc(C)o1 (stereo not drawn)	3.3	630 nM	
COc1cc(-c2nnc3n2CCCC3c2ccc(N3CCOCC3)cc2)ccc1-c1cnc(C)o1 (stereo not drawn)	2.3	2300 nM	
